Experimental data: patent publication US20220401514A1, “ANTIMICROBIAL, BACTERIOPHAGE-DERIVED POLYPEPTIDES AND THEIR USE AGAINST GRAM-NEGATIVE AND ACID-FAST BACTERIA” (CONTRAFECT CORPORATION, priority 2019, published 2022)
Like-named read-outs stand apart in the source and are kept apart here.

Legend:
M. scrofulaceum = assay: 45 hr MIC against M. scrofulaceum (NTM); assay type: cell-based, Mycobacterium scrofulaceum; conditions: M. scrofulaceum Prissick and Masson ATCC 19981
Klebsiella pneumoniae [1] = assay type: cell-based; conditions: for MIC50 / MIC100 / MIC Range: K. pneumoniae isolates (n per peptide in table); for MIC: Klebsiella pneumoniae HM-44, CAA supplemented with human serum
Description: (§1) Determination of Minimal Inhibitory Concentrations (MIC).
(§2) Additional MIC testing was performed for several peptides against the ESKAPE pathogens Escherichia coli, Enterobacter cloacae, Klebsiella pneumoniae, and Acinetobacter baumannii, in CAA supplemented with human serum (Table D).

[2] = test system: P. aeruginosa strain CFS-1292; assay: MIC in presence and absence of Survanta pulmonary surfactant; assay type: cell-based, Pseudomonas aeruginosa
Klebsiella pneumoniae [3] = assay: microbe, parasite or virus in culture; assay type: cell-based; conditions: CAA without human serum
[4] = test system: carbapenem-resistant bacterial strains; assay: organism not typed; assay type: cell-based
Description: as §1

[5] = test system: P. aeruginosa strain CFS-1292; assay: MIC in presence of divalent cations (calcium chloride, magnesium sulfate); assay type: cell-based, Pseudomonas aeruginosa
Description: Next, Chp peptides were evaluated in the presence of different divalent cations. […]; (2) in the presence of 2 mM calcium chloride alone; (3) in the presence of 1 mM magnesium sulfate alone; and (4) in the presence of both 2 mM calcium chloride and 1 mM magnesium sulfate. […]

M. fortuitum = assay: 45 hr MIC against M. fortuitum (NTM); assay type: cell-based, Mycobacterium fortuitum; conditions: M. fortuitum subsp. Fortuitum da Costa Cruz. ATCC 6841
M. smegmatis = assay: 45 hr MIC against M. smegmatis (NTM), Mueller Hinton broth; assay type: cell-based, Mycobacterium smegmatis
[6] = test system: Pseudomonas aeruginosa, Escherichia coli, Enterobacter cloacae, Klebsiella pneumoniae, and Acinetobacter baumannii; assay: MIC against a range of Gram-negative organisms (statements covering several species); assay type: cell-based; conditions: Tables 40-44 isolates
Description: as §1, §2

[7] = test system: P. aeruginosa strain CFS-1292; assay: Checkerboard assay (FICI) with antibiotics, P. aeruginosa; assay type: cell-based, Pseudomonas aeruginosa; conditions: for FICI: CAA + […] human serum
Description: Any known method to assess MIC may be used.
Checkerboards are constructed by first preparing columns of e.g., a 96-well polypropylene microtiter plate, wherein each well has the same amount of antibiotic diluted 2-fold along the horizontal axis. […] Bacteria are added to the drug combinations at concentrations of 1×10^5 […] in CAA, for example, with or without human serum or pulmonary surfactant. […] Summation fractional inhibitory concentrations (ΣFICs) are calculated for each drug and the minimum ΣFIC value (ΣFICmin) is used to determine the effect of the Chp peptide/antibiotic combination.
Checkerboard assays. […] Checkerboards were constructed by first preparing columns of a 96-well polypropylene microtiter plate, in which each well had the same amount of antibiotic diluted 2-fold along the horizontal axis. […] Summation fractional inhibitory concentration index (FICIs) were calculated for each drug and the minimum FICI was used to determine synergy. FICIs were calculated as follows: FICI=FIC A+FIC B, where FIC A is the MIC of each antibiotic in the combination/MIC of the each antibiotic alone, and FIC B is the MIC of each Chp peptide in the combination/MIC of each Chp peptide alone. The combination is considered synergistic when the FICI is ≤0.5, strongly additive when the FICI is >0.5 to <1, additive with the FICI is 1-<2, and antagonistic when the FICI is ≥2.
In the checkerboard assay, fractional inhibitory concentration index (FICI) values are calculated.

[8] = CAA media + 0.19 mg/mL Survanta
[9] = Klebsiella pneumoniae (ATCC 10031, MIC control strain), RSC 814
[10] = Klebsiella pneumoniae (g2-3 HM35K), RSC 1138
[11] = Klebsiella sp. (HM-44; colon, Crohn's disease), RSC 1139
[12] = Klebsiella spp. (HM-223; gut of Crohn's disease patient), RSC 1131
[13] = carbapenem-resistant isolate PA19
[14] = carbapenem-resistant isolate PA20
[15] = carbapenem-resistant isolate PA21
[16] = carbapenem-resistant isolate PA22
[17] = carbapenem-resistant isolate PA23
[18] = carbapenem-resistant isolate PA24
[19] = carbapenem-resistant isolate WLC-452

MVRRRRLRRRISRRIFRRTVARVGRRRRSFRGGIRF [Chp1]
45 hr MIC (M. scrofulaceum): 4 mg/L
MIC50 (Klebsiella pneumoniae [1]): 2 mg/L
MIC100 (Klebsiella pneumoniae [1]): 2 mg/L
MIC Range (Klebsiella pneumoniae [1]): 1 to 4 mg/L
MIC (Klebsiella pneumoniae [1]): 1 mg/L
MIC [2, 8]: 2 mg/L
MIC ([2]; CAA media + […] Survanta): 2 mg/L
MIC ([2]; CAA media alone): 1 mg/L
MIC (Klebsiella pneumoniae [3]; [9]): 16 mg/L
MIC (Klebsiella pneumoniae [3]; [10]): 16 mg/L
MIC (Klebsiella pneumoniae [3]; [11]): 8 mg/L
MIC (Klebsiella pneumoniae [3]; [12]): 8 mg/L
MIC [4, 13]: 2 mg/L
MIC [4, 14]: 4 mg/L
MIC [4, 15]: 4 mg/L
MIC [4, 16]: 4 mg/L
MIC [4, 17]: 4 mg/L
MIC [4, 18]: 4 mg/L
MIC [4, 19]: 2 mg/L
MIC ([5]; CAA media + 1 mM MgSO4): 1 mg/L
MIC ([5]; CAA media + 2 mM CaCl2): 2 mg/L
MIC ([5]; CAA media + + 1 mM MgSO4): 1 mg/L
MIC ([5]; CAA media alone): 1 mg/L
45 hr MIC (M. fortuitum): 16 mg/L
45 hr MIC (M. smegmatis; M. smegmatis MC^2 155, Run #1): 8 mg/L
45 hr MIC (M. smegmatis; M. smegmatis MC^2 155, Run #2): 16 mg/L

MARRYRLSRRRSRRLFSRTALRMHRRNRLRRIMRGGIRF [Chp4]
45 hr MIC (M. scrofulaceum): 2 mg/L
MIC50 (Klebsiella pneumoniae [1]): 1 mg/L
MIC100 (Klebsiella pneumoniae [1]): 1 mg/L
MIC Range (Klebsiella pneumoniae [1]): 0.5 to 1 mg/L
MIC (Klebsiella pneumoniae [1]): 0.25 mg/L
MIC [2, 8]: 0.5 mg/L
MIC ([2]; CAA media + […] Survanta): 0.5 mg/L
MIC ([2]; CAA media alone): 0.5 mg/L
MIC (Klebsiella pneumoniae [3]; [9]): 4 mg/L
MIC (Klebsiella pneumoniae [3]; [10]): 4 mg/L
MIC (Klebsiella pneumoniae [3]; [11]): 4 mg/L
MIC (Klebsiella pneumoniae [3]; [12]): 4 mg/L
MIC [4, 13]: 0.5 mg/L
MIC [4, 14]: 1 mg/L
MIC [4, 15]: 1 mg/L
MIC [4, 16]: 1 mg/L
MIC [4, 17]: 1 mg/L
MIC [4, 18]: 1 mg/L
MIC [4, 19]: 0.5 mg/L
MIC ([5]; CAA media + 1 mM MgSO4): 0.5 mg/L
MIC ([5]; CAA media + 2 mM CaCl2): 1 mg/L
MIC ([5]; CAA media + + 1 mM MgSO4): 0.125 mg/L
MIC ([5]; CAA media alone): 0.5 mg/L
activity (good = MIC100 of ≤4) against all of P. aeruginosa, K. pneumoniae, A. baumannii, E. cloacae, and E. coli [6]: good activity
45 hr MIC (M. fortuitum): 4 mg/L
interaction between the Chp peptide and the antibiotic (FICI values) ([7]; P. aeruginosa CFS-1292, range of antibiotics): either synergy (i.e., ≤0.5) or strongly additive (i.e., >0.5-1)
FICI ([7]; combination with Amikacin): 0.500
FICI ([7]; combination with Azithromycin): 0.156
FICI ([7]; combination with Aztreonam): 0.375
FICI ([7]; combination with Ciprofloxacin): 0.375
FICI ([7]; combination with Colistin): 0.375
FICI ([7]; combination with Fosfomycin): 0.250
FICI ([7]; combination with Gentamicin): 0.250
FICI ([7]; combination with Imipenem): 0.375
FICI ([7]; combination with Piperacillin): 0.188
FICI ([7]; combination with Rifampicin): 0.750
FICI ([7]; combination with Tobramycin): 0.266
45 hr MIC (M. smegmatis; M. smegmatis MC^2 155, Run #1): 4 mg/L
45 hr MIC (M. smegmatis; M. smegmatis MC^2 155, Run #2): 4 mg/L
